{"source": "paper PMC7311461", "about": "“Cyclophilin D binds to the acidic C-terminus region of α-Synuclein and affects its aggregation characteristics” (Scientific Reports, 2020)", "key": {"[1]": {"tested_on": "αSyn", "conditions": "cited from earlier work", "source_text": "While the aggregation processes are well studied the same is not true for disaggregation. […] EGCG binding to the C-terminus stabilises the αSyn monomeric state and shifts the monomer-fibril equilibrium towards the less aggregated forms. […] Human Cyp40 is a multidomain protein consisting of the catalytic isomerase domain followed by four tetratricopeptide repeats. Through mutagenesis, the isomerase domain was identified as being responsible for this disaggregating activity[15] as is also shown here for CypD. CypD also interacts directly with the Alz ..."}, "[2]": {"tested_on": "human insulin and human lysozyme", "conditions": "cited from earlier work", "source_text": "An emerging picture is that agents that prevent aggregation can also dissemble amyloid fibrils."}, "[3]": {"tested_on": "αSyn", "conditions": "cited from earlier work", "source_text": "(§1) Proteins currently known to dissociate amyloid fibrils do so in either an ATP-dependent or –independent manner. Examples of the former include Hsp70, whereas the latter mode can be found in Cyclophilin 40 (Cyp40)[14],[15]. […] The effects of Cyp40 on the tau and αSyn fibrils were attributed to its peptidyl-prolyl isomerase activity. […] An emerging picture is that agents that prevent aggregation can also dissemble amyloid fibrils. […] Human Cyp40 is a multidomain protein consisting of the catalytic isomerase domain followed by four tetratricopeptide repeats. Through mutagenesis, the isomerase domain was identified as being responsible for this disaggregating activity[15] as is also shown here for CypD. CypD also interacts directly with the Alz ...", "remark": "listed apart in the source"}, "[4]": {"tested_on": "amyloid-β (Aβ)", "conditions": "cited from earlier work", "source_text": "as §1"}, "[5]": {"molecular_target": "T1, CypD (Homo sapiens, UniProt P30405)", "T1 construct": "His tag (TEV-cleavable, pETM11 vector) (cleaved yes); made in house; host or cells: E. coli BL21 (DE3)", "T1 sequence (P30405 43-207)": "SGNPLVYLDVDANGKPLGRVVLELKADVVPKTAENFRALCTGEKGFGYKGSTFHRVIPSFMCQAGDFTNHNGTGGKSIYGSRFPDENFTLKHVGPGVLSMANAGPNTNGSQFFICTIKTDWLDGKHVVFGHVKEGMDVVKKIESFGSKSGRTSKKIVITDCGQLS", "assay": "Isothermal titration calorimetry, binding to CypD wild-type", "conditions": "10°C, 20 mM phosphate, 20 mM NaCl, pH 6.5", "procedure": "All ITC experiments were carried out at 10°C on an ITC200 Microcalorimeter (GE Healthcare). The buffer used was 20 mM phosphate, 20 mM NaCl at pH 6.5. Each experiment consisted of an initial injection of 0.5 µL, followed by fifteen 2.39 µL injections before a final injection of 1.89 µL. Control experiments were performed whereby each compound was titrated into buffer and buffer titrated into CypD. In both cases no heat exchange was detected, confirming that there was appropriate match of buffer conditions with no indication of dilution effects. The titration experiments were performed in duplicates, with 50-100 µM CypD in the cell and 500-2000 µM peptides in the syringe. For some of the titrations, data from two runs were concatenated to achieve a saturating isotherm. All data was analysed using the Origin®7 (OriginLab, Northampton, MA) software programme."}, "[6]": {"molecular_target": "T1, CypD", "assay": "1H-15N HSQC NMR of 15N-CypD, binding site identification", "conditions": "15N-CypD HSQC, 20-fold excess peptide; 20 mM phosphate, 20 mM NaCl, pH 6.5", "procedure": "NMR spectra were acquired on Bruker Avance III 800 MHz spectrometer equipped with [^1H, ^15N, ^13C]-cryoprobes. […] The same buffer was used for obtaining the ^1H-^15N spectra of ^15N-labelled αSyn at 298 K. Experiments using ^15N-labelled αSyn fibrils were performed at 288 K. ^2H/^15N-labelled CypD was used to make the complex with intact αSyn in order to achieve the optimal conditions to observe shift perturbations, taking into account the size of the complex (~32kD). Backbone ^1H and ^15N resonances of CypD and αSyn were assigned using standard triple resonance to those assigned by ^13C, ^15N, ^1H-triple resonance HNCA, HN(CO)CA, HNCO, HN(CA)CO, CBCA(CO)NH, and CBCANH experiments.\nIn the analyses of the chemical shift perturbation, the chemical-shift difference was expressed as: Δδ = {(ΔH)^2 + (0.15ΔN)^2}^1/2. Values of Δδ greater than 0.07 were considered significant."}, "[7]": {"molecular_target": "T1, CypD", "assay": "Isomerisation substrate test by NMR", "format": "biochemical", "procedure": "(§2) NMR spectra were acquired on Bruker Avance III 800 MHz spectrometer equipped with [^1H, ^15N, ^13C]-cryoprobes. 1D and 2D spectra of αSyn peptide were performed using 1 mM peptide dissolved in 20 mM phosphate, 20 mM NaCl pH 6.5 at 298 K or 283 K. Resonance assignments of the proton spectra of αSyn peptide were obtained using ^1H-^1H 2D TOCSY (mixing time 60 ms) and NOESY spectra (mixing time 350 ms). […] The same buffer was used for obtaining the ^1H-^15N spectra of ^15N-labelled αSyn at 298 K. Experiments using ^15N-labelled αSyn fibrils were performed at 288 K. ^2H/^15N-labelled CypD was used to make the complex with intact αSyn in order to achieve the optimal conditions to observe shift perturbations, taking into account the size of the complex (~32kD). Backbone ^1H and ^15N resonances of CypD and αSyn were assigned using standard triple resonance to those assigned by ^13C, ^15N, ^1H-triple resonance HNCA, HN(CO)CA, HNCO, HN(CA)CO, CBCA(CO)NH, and CBCANH experiments."}, "[8]": {"tested_on": "αSynC peptide (cis-trans isomerisation by CypD)", "assay": "NMR detection of αSynC cis-trans isomerisation (1D line-broadening, 2D NOESY exchange cross-peaks)", "format": "biochemical", "conditions": "αSynC 1 mM, CypD 50uM, CsA 100uM, 283 K", "procedure": "as §2"}, "[9]": {"tested_on": "αSyn effects on mitochondria / MPTP", "conditions": "cited from earlier work", "source_text": "Cyclophilin D (CypD) is a mitochondrial peptidyl-prolyl isomerase that has been implicated to be involved in the mechanisms of many diseases, although it is best known as a regulator for the opening of the mitochondria permeability transition pore (MPTP). […] Co-immunoprecipitation experiments ..."}, "[10]": {"tested_on": "tau", "conditions": "cited from earlier work", "source_text": "Proteins currently known to dissociate amyloid fibrils do so in either an ATP-dependent or –independent manner. Examples of the former include Hsp70, whereas the latter mode can be found in Cyclophilin 40 (Cyp40)[14],[15]. […] The effects of Cyp40 on the tau and αSyn fibrils were attributed to its peptidyl-prolyl isomerase activity."}}, "note": "Entries after “also recorded” stand apart in the source; their conditions may differ."}
{"compound": "Cyclophilin A: Cyclophilin A", "values": [{"measurement": "binding to αSyn", "setting": "[1]", "value": "bind to αSyn, also at the C-terminus as well as to the preNAC sequence"}]}
{"compound": "CC(CN1c2ccccc2Sc2ccccc21)N(C)C", "note": "(centres unmarked) [promethazine]", "values": [{"measurement": "aggregation of human insulin and human lysozyme", "setting": "[2]", "value": "prevents the aggregation of human insulin and human lysozyme; also recorded: depolymerises preformed fibrils"}]}
{"compound": "epigallocatechin-3-gallate [EGCG]", "values": [{"measurement": "dissociation of αSyn aggregates", "setting": "[3]", "value": "dissociates αSyn aggregates"}, {"measurement": "binding to C-terminus of monomeric αSyn", "setting": "[1]", "value": "binds to the C-terminus of monomeric αSyn"}]}
{"compound": "CC12CC3CC(C)(C1)CC(N)(C3)C2", "note": "[memantine]", "values": [{"measurement": "Aβ aggregation and preformed Aβ fibrils", "setting": "[4]", "value": "inhibits Αβ aggregation; also recorded: disassembles preformed Aβ fibrils"}]}
{"compound": "FKBP12: peptidyl-prolyl isomerase immunophilin protein belonging to the FKBP family, cytoplasmic", "values": [{"measurement": "αSyn aggregation", "setting": "[3]", "value": "promoted αSyn aggregation"}, {"measurement": "binding to αSyn", "setting": "[1]", "value": "shown to bind αSyn"}]}
{"compound": "GVATVAEKTKEQVTN [αSynM, synthetic peptide 51–65 of αSyn, >98% pure]", "values": [{"measurement": "binding to CypD (ITC, in words)", "setting": "[5]", "value": "too weak to yield a reliable binding isotherm; also recorded: binds much more weakly"}, {"measurement": "binding to CypD by NMR (in words)", "setting": "[6]", "value": "only slightly shifted from the positions in the free protein with minimal broadening observed for selected peaks; also recorded: very weak binding"}, {"measurement": "interaction with CypD / isomerisation substrate", "setting": "[7]", "value": "not an isomerisation substrate of CypD"}]}
{"compound": "cyclosporine A [CsA]", "values": [{"measurement": "effect of CsA on exchange cross-peaks (CypD isomerase activity)", "setting": "[8]", "value": "exchange crosspeaks disappear"}, {"measurement": "effect of CsA on exchange cross-peaks (CypD isomerase activity)", "setting": "[8]; listed as Cyclosporine A", "value": "disappearance of the exchange cross-peaks"}, {"measurement": "rescue of αSyn effects on mitochondria", "setting": "[9]", "value": "can be rescued"}]}
{"compound": "C=CC[C@@H]1/C=C(\\C)C[C@H](C)C[C@H](OC)[C@H]2O[C@@](O)(C(=O)C(=O)N3CCCC[C@H]3C(=O)O[C@H](/C(C)=C/[C@@H]3CC[C@@H](O)[C@H](OC)C3)[C@H](C)[C@@H](O)CC1=O)[C@H](C)C[C@@H]2OC", "note": "[FK506]", "values": [{"measurement": "αSyn aggregation (FKBP inhibitor)", "setting": "[3]", "value": "prevent αSyn aggregation"}]}
{"compound": "Cyp40: cytosolic peptidyl prolyl isomerase, co-chaperone to Hsp90", "values": [{"measurement": "dissociation of fibrils", "setting": "[4]; Aβ fibrils", "value": "not amyloid-β (Aβ) fibrils"}, {"measurement": "dissociation of fibrils", "setting": "[3]; αSyn fibrils", "value": "dissociate tau, and αSyn"}, {"measurement": "dissociation of fibrils", "setting": "[10]", "value": "dissociate tau"}]}
